Measurements: patent US20180256673A1, “METHODS FOR TREATING FUNGAL INFECTIONS” (priority 2015, published 2018)
Converted amounts (≈) assume the structure as drawn. “And” between values parts separate entries of the source, which are not always exact repeats. Equal values may be shown once. Read-outs that look alike come from different tables or passages of the source.

Experiments:
C. krusei ATCC 6258 [1] = test: microbe, parasite or virus in culture; type: cell-based, Candida krusei; conditions: for MIC: Pichia kudriavzevii
C. krusei ATCC 6258 [2] = test: Broth microdilution MIC (CLSI), Examples 3 and 4; conditions: Pichia kudriavzevii, ATCC6258, 24 h, read-out: Broth MIC
Description: (§1) Antifungal susceptibility testing. Candida strains were cultured aerobically at 35° C. on SDA plates or in RPMI 1640 broth (pH 7.0). […] MIC assays were performed in triplicate.

Candida albicans = test: Broth microdilution of invasive fungal isolates (CLSI M27-A3/M38-A2); type: cell-based; conditions: 251 isolates
Candida glabrata = test: microbe, parasite or virus in culture; type: cell-based
[3] = test system: C. glabrata ATCC 90030, ATCC 2001; test: Broth microdilution MIC (CLSI), Examples 3 and 4; conditions: for MIC: Nakaseomyces glabratus
Description: as §1

C. albicans NRRL Y-477 = test: microbe, parasite or virus in culture; type: cell-based, Candida albicans; conditions: for MIC: Candida albicans
[4] = test system: C. glabrata ATCC 90030, ATCC 2001; type: cell-based, Candida glabrata; conditions: ATCC 2001
Description: Spontaneous mutant selection. […] Three individual colonies from each strain were used to start cultures in RPMI. […] One milliliter aliquots were spread onto SDA plates containing drug with sterile glass beads. Starting viable count was enumerated by triplicate plating of serial dilutions of the starting inoculum. […] Glycerol stocks of putative mutant colonies were stored at −80° C. […] Spontaneous mutation frequencies were calculated by dividing the number of resistant colonies on a given plate by the starting inoculum plated. A subset of mutants (weighted heavily towards those selected with CMP1) were then evaluated by MIC and sequencing of FKS gene hot spot regions.

`CC[C@H](C)C[C@H](C)CCCCCCCCC(=O)N[C@H]1C[C@@H](O)[C@@H](NCCN)NC(=O)[C@@H]2[C@@H](O)CCN2C(=O)[C@H]([C@H](O)CCN)NC(=O)[C@H]([C@H](O)[C@@H](O)c2ccc(O)cc2)NC(=O)[C@@H]2C[C@@H](O)CN2C(=O)[C@H]([C@@H](C)O)NC1=O` [CAS, caspofungin] was tested, and the MIC fold-shift (C. krusei ATCC 6258 [1]; ATCC 6258, WT to P20) was 2, the MIC (C. krusei ATCC 6258 [1]; ATCC6258) was 0.5 µg/mL (≈ 0.457 µM) and the MIC (C. krusei ATCC 6258 [1]; ATCC6258, read-out: MIC P20) was 1 µg/mL (≈ 0.915 µM). The MIC (C. krusei ATCC 6258 [2]) was 0.5 µg/mL (≈ 0.457 µM), the “Cumulative % of isolates inhibited at MIC 0.015 μg/mL” value (Candida albicans) was “(31.9) %” and the “Cumulative % of isolates inhibited at MIC 0.03 μg/mL” value (Candida albicans) was “(85.7) %”. For the same compound, the “Cumulative % of isolates inhibited at MIC 0.06 μg/mL” value (Candida albicans) was “(99.2) %”, the “Cumulative % of isolates inhibited at MIC 0.12 μg/mL” value (Candida albicans) was “(100.0) %” and the “Cumulative % of isolates inhibited at MIC ≤0.008 μg/mL” value (Candida albicans) was 1.6%. For the same compound, the “Number of isolates inhibited at MIC 0.015 μg/mL” value (Candida albicans) was 76, the “Number of isolates inhibited at MIC 0.03 μg/mL” value (Candida albicans) was 135 and the “Number of isolates inhibited at MIC 0.06 μg/mL” value (Candida albicans) was 34. The “Number of isolates inhibited at MIC 0.12 μg/mL” value (Candida albicans) was 2, the “Number of isolates inhibited at MIC ≤0.008 μg/mL” value (Candida albicans) was 4 and the MIC50 (Candida albicans; Candida albicans, read-out: MIC50) was 0.03 µg/mL (≈ 0.0274 µM). The MIC90 (Candida albicans; Candida albicans, read-out: MIC90) was 0.06 µg/mL (≈ 0.0549 µM), the “Cumulative % of isolates inhibited at MIC 0.03 μg/mL” value (Candida glabrata; 100 isolates) was “(38.0) %” and the “Cumulative % of isolates inhibited at MIC 0.06 μg/mL” value (Candida glabrata; 100 isolates) was “(89.0) %”. For the same compound, the “Cumulative % of isolates inhibited at MIC 0.12 μg/mL” value (Candida glabrata; 100 isolates) was “(95.0) %”, the “Cumulative % of isolates inhibited at MIC 0.25 μg/mL” value (Candida glabrata; 100 isolates) was “(95.0) %” and the “Cumulative % of isolates inhibited at MIC 0.5 μg/mL” value (Candida glabrata; 100 isolates) was “(95.0) %”. For the same compound, the “Cumulative % of isolates inhibited at MIC 1 μg/mL” value (Candida glabrata; 100 isolates) was “(95.0) %”, the “Cumulative % of isolates inhibited at MIC 2 μg/mL” value (Candida glabrata; 100 isolates) was “(97.0) %” and the “Cumulative % of isolates inhibited at MIC 4 μg/mL” value (Candida glabrata; 100 isolates) was “(97.0) %”. The “Cumulative % of isolates inhibited at MIC 8 μg/mL” value (Candida glabrata; 100 isolates) was “(100.0) %”, the “Number of isolates inhibited at MIC 0.03 μg/mL” value (Candida glabrata; 100 isolates) was 38 and the “Number of isolates inhibited at MIC 0.06 μg/mL” value (Candida glabrata; 100 isolates) was 51. For the same compound, the “Number of isolates inhibited at MIC 0.12 μg/mL” value (Candida glabrata; 100 isolates) was 6, the “Number of isolates inhibited at MIC 0.25 μg/mL” value (Candida glabrata; 100 isolates) was 0 and the “Number of isolates inhibited at MIC 0.5 μg/mL” value (Candida glabrata; 100 isolates) was 0. For the same compound, the “Number of isolates inhibited at MIC 1 μg/mL” value (Candida glabrata; 100 isolates) was 0, the “Number of isolates inhibited at MIC 2 μg/mL” value (Candida glabrata; 100 isolates) was 3 and the “Number of isolates inhibited at MIC 4 μg/mL” value (Candida glabrata; 100 isolates) was 0. For the same compound, the “Number of isolates inhibited at MIC 8 μg/mL” value (Candida glabrata; 100 isolates) was 3, the MIC50 (Candida glabrata; Nakaseomyces glabratus) was 0.06 µg/mL (≈ 0.0549 µM) and the MIC90 (Candida glabrata; Nakaseomyces glabratus) was 0.12 µg/mL (≈ 0.11 µM). The MIC (Candida glabrata; Nakaseomyces glabratus, read-out: MIC according to CLSI method, isolate from CA, USA, fks1 HS1 S629P) was 8 µg/mL (≈ 7.32 µM), the MIC (Candida glabrata; Nakaseomyces glabratus, read-out: MIC according to CLSI method, isolate from Canada (first line), fks1 HS1 S629P, fks2 HS1 S663P) was greater than 8 µg/mL and the MIC (Candida glabrata; Nakaseomyces glabratus, read-out: MIC according to CLSI method, isolate from Canada (second line), fks1 HS1 S629P, fks2 HS1 S663P) was greater than 8 µg/mL. For the same compound, the MIC (Candida glabrata; Nakaseomyces glabratus, read-out: MIC according to CLSI method, isolate from Israel, fks2 HS1 F659S) was 2 µg/mL (≈ 1.83 µM), the MIC (Candida glabrata; Nakaseomyces glabratus, read-out: MIC according to CLSI method, isolate from NY, USA, fks2 HS1 S663P) was 2 µg/mL (≈ 1.83 µM) and the MIC (Candida glabrata; Nakaseomyces glabratus, read-out: MIC results, two isolates from same patient, Edmonton, Canada, fks1 HS1 S629P and fks2 HS1 S663P) was greater than 8 µg/mL. For the same compound, the “Broth MIC” value ([3]; ATCC 2001 wild-type, 24 h, ~50% inhibition) was 0.25 µg/mL, the MIC ([3]; 24 h, read-out: Broth MIC) was 0.25 µg/mL (≈ 0.229 µM) and the MIC ([3]; ATCC2001|ATCC90030, ATCC 2001 spontaneous mutant, Fks2 HS1 D666N) was 0.25 µg/mL (≈ 0.229 µM). It also gave an MIC ([3]; ATCC2001|ATCC90030, ATCC 2001 spontaneous mutant, Fks2 HS1 D666Y) of 0.5 µg/mL (≈ 0.457 µM), an MIC ([3]; ATCC2001|ATCC90030, ATCC 2001 spontaneous mutant, Fks2 HS1 R665G) of 0.5 µg/mL (≈ 0.457 µM) and an MIC ([3]; ATCC2001|ATCC90030, ATCC 2001 spontaneous mutant, Fks2 HS1 S663F) of 1 µg/mL (≈ 0.915 µM). For the same compound, the MIC ([3]; ATCC2001|ATCC90030, ATCC 2001 spontaneous mutant, Fks2 HS1 ΔF659) was 16 µg/mL (≈ 14.6 µM), the MIC ([3]; ATCC2001|ATCC90030, ATCC 2001 spontaneous mutant, Fks2 HS2 R1378S) was 0.25 µg/mL (≈ 0.229 µM) and the MIC ([3]; ATCC2001|ATCC90030, ATCC 90030 spontaneous mutant, Fks2 HS1 D666H) was 1 µg/mL (≈ 0.915 µM). It also gave an MIC ([3]; ATCC2001|ATCC90030, ATCC 90030 spontaneous mutant, Fks2 HS1 ΔF659) of 4 µg/mL (≈ 3.66 µM), an MIC (C. albicans NRRL Y-477; NRRLY477, 48 h, NRRL Y-477 P20-1, selecting drug ANID, Fks1 HS1 S645Y, 48 h read) of 2 µg/mL (≈ 1.83 µM) and an MIC (C. albicans NRRL Y-477; NRRLY477, 48 h, NRRL Y-477 P20-1, selecting drug CMP1, 48 h read) of 0.5 µg/mL (≈ 0.457 µM). The MIC (C. albicans NRRL Y-477; NRRLY477, NRRL Y-477 P20-1, selecting drug CAS) was 0.25 µg/mL (≈ 0.229 µM), the MIC (C. albicans NRRL Y-477; NRRLY477, read-out: MIC P20, NRRL Y-477, total population after 20 passages with the selecting drug, MIC of selecting drug) was 0.25 µg/mL and the MIC fold-shift (C. albicans NRRL Y-477; NRRL Y-477, WT to P20) was 1. For the same compound, the Median mutation frequency [4] was 3.16E−08 and the “Freq. (replicate mutation frequency)” value ([4]; replicate plates 1-3) was 3.16E−08 and 2.92E−08 and 3.50E−08.
